Experiments:
[1] = tested on: rat liver microsomes (RLM); assay: Metabolic stability in rat liver microsomes (RLM); settings: for RLM, %, class symbol (metabolized or not) / RLM, % (half-life as % vs. the related nondeuterated compound): RLM assay; for RLM, %, class symbol (metabolized or not): last time point 120 min; for RLM, % (half-life as % vs. the related nondeuterated compound): values in square brackets are within 10% (assay's accuracy), no deuteration effect
hrMAO-A = target: T1, hrMAO-A (Homo sapiens, UniProt P21397); assay: Metabolic stability in the presence of hrMAO-A; format: in vitro ADME; settings: for MAO, % (half-life as % vs. the related nondeuterated compound) / MAO, %, class symbol (metabolized or not): MAO-A assay; for MAO, % (half-life as % vs. the related nondeuterated compound): values in square brackets are within 10% (assay's accuracy), no deuteration effect; for MAO, %, class symbol (metabolized or not): last time point 120 min
T1 construct: purchased XenoTech Lot #8213001
T1 sequence (P21397 1-527): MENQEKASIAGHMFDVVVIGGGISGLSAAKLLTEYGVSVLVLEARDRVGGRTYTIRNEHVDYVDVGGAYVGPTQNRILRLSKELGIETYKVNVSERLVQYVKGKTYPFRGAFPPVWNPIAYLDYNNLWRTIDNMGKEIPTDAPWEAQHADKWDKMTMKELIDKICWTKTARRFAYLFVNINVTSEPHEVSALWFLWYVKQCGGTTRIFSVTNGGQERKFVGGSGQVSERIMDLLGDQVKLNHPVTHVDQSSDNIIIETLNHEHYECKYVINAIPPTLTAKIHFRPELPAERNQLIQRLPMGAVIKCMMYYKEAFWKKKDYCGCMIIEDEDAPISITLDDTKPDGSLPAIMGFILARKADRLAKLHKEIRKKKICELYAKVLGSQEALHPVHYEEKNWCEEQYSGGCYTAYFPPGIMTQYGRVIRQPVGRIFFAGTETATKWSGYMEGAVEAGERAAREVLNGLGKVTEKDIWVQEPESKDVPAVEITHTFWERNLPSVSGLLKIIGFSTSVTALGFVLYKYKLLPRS
Method: The reaction mixture was prepared as described below. The co-dosed TAs were added into the reaction mixture at a final concentration of 1 microM each. The positive control, kynuramine (25 microM), was run simultaneously with the TAs in a separate reaction. The reaction mixture (without TAs or kynuramine) was equilibrated in a shaking water bath at 37° C. for 5 minutes. The reaction was initiated by the addition of the TAs or kynuramine, and the mixture was incubated in a shaking water bath at 37° C. Aliquots (100 microL) of the TA reaction mixture were withdrawn at 0, 5, 10, 20, 30, 60, and 120 minutes. Aliquots (100 microL) of the positive control reaction mixture were withdrawn at 0 and 30 minutes. TA and kynuramine samples were immediately combined with 100 microL of ice-cold 100% MeCN containing 0.1% formic acid and IS to terminate the reaction. The samples were then mixed and centrifuged to precipitate proteins. All TA samples were assayed by LC-HRAMS. The PARR (analyte to IS) at each time point was compared to the PARR at time 0 to determine the percent remaining at each time point. Reaction composition: hrMAO 0.02 mg/mL; Potassium Phosphate, pH 7.4 100 mM; Magnesium Chloride 5 mM; Test Articles (each) 1 microM.

[2] = PK studies in rats (cassette dosing, oral gavage or catheter; brain and plasma levels); format: in vivo, Wistar female rats; settings: % change vs. non-deuterated material; for Deuterium Kinetic Isotope Effect (% change) AUC / Deuterium Kinetic Isotope Effect (% change) T1/2: 5 mg/kg; for Deuterium Kinetic Isotope Effect (% change) BPR, 15 min: sacrificed at 15 min; for Deuterium Kinetic Isotope Effect (% change) BPR, 15 min / Deuterium Kinetic Isotope Effect (% change) BPR, 30 min: parent drug in brain and plasma; for Deuterium Kinetic Isotope Effect (% change) BPR, 30 min: sacrificed at 30 min
Method: The key PK parameters (presented as a % change vs. non-deuterated materials) are presented in Table 3 to include half-life (T1/2), area under the curve (AUC), bioavailability (F) and blood-to-plasma ration (BPR). Pharmacokinetics of the deuterated tryptamines was studied in rats. In a typical experiment, run as a cassette dosing, two groups of 5 Wistar female rats (200-250 g) with surgically inserted jugular vein catheter (Charles River, Andover, MA) were fasted for 12 h and then administered 5 mg/kg of the deuterated and 5 mg/kg of the related non-deuterated analog, by oral gavage or via a catheter for each group. At time points 0, 15, 30, 60 min, and 2, 4, 8, and 24 h, the resulting plasma was analyzed for the parent molecule using LC/MS spectroscopy. Two separate groups of 5 animals were used for determining blood-to-plasma ratio (BPR). Each group was sacrificed at time points 15 and 30 min, respectively, and the concentration of the parent drug was determined in the brain and plasma by LC/MS spectroscopy.

[3] = Table 5, d8 and d10 analogs, hrMAO-A

In the case of `C=CCN(CC=C)CCc1c[nH]c2ccccc12`, the “RLM, %, class symbol (metabolized or not)” value [1] is reported as “R”.

With `C=CCNCCc1c[nH]c2ccccc12` the “RLM, %, class symbol (metabolized or not)” value [1] was “R”.

For `[2H]C([2H])(Cc1c[nH]c2ccccc12)NC([2H])([2H])C([2H])([2H])[2H]`, the “MAO, % (half-life as % vs. the related nondeuterated compound)” value (hrMAO-A) was 170%.

For `[2H]C([2H])([2H])C([2H])([2H])NC([2H])([2H])C([2H])([2H])c1c[nH]c2cccc(O)c12`, the “RLM, % (half-life as % vs. the related nondeuterated compound)” value [1] was “[93] %”.

In the case of `CCN(CC)CCc1c[nH]c2ccccc12`, the “RLM, %, class symbol (metabolized or not)” value [1] is reported as “R”.

For `[2H]C([2H])(c1c[nH]c2ccc(OC)cc12)C([2H])([2H])N(CC)CC`, the “RLM, % (half-life as % vs. the related nondeuterated compound)” value [1] was “[95] %”.

For `CCN(CC)CCc1c[nH]c2ccc(OC)cc12`, the “RLM, %, class symbol (metabolized or not)” value [1] was “R”.

In the case of `CCN(CC)CCc1c[nH]c2ccc(O)cc12`, the “RLM, %, class symbol (metabolized or not)” value [1] is reported as “R”.

For `CCN(CC)CCc1c[nH]c2cccc(OC)c12`, the “RLM, %, class symbol (metabolized or not)” value [1] was “R”.

For `[2H]c1ccc2[nH]c([2H])c(CCN([2H])CC)c2c1O`, the “RLM, %, class symbol (metabolized or not)” value [1] was “R”.

With `[2H]C([2H])(NCC)C([2H])([2H])c1c[nH]c2ccccc12` the “MAO, % (half-life as % vs. the related nondeuterated compound)” value (hrMAO-A) was 140%.

With `[2H]C([2H])(NCC)C([2H])([2H])c1c[nH]c2cccc(O)c12` the “RLM, % (half-life as % vs. the related nondeuterated compound)” value [1] was “[94] %”.

In the case of `CCNCCc1c[nH]c2cccc(O)c12`, the “RLM, %, class symbol (metabolized or not)” value [1] is reported as “R”.

With `[2H]C([2H])(c1c[nH]c2cccc(OC)c12)C([2H])([2H])N(C)C` the “RLM, % (half-life as % vs. the related nondeuterated compound)” value [1] was 190%.

In the case of `[2H]C([2H])(NC)C([2H])([2H])c1c[nH]c2cccc(O)c12`, the “RLM, % (half-life as % vs. the related nondeuterated compound)” value [1] is reported as 160%.

In the case of `CC(C)NCCc1c[nH]c2ccccc12`, the “RLM, %, class symbol (metabolized or not)” value [1] is reported as “R”.

With `CC(C)NCCc1c[nH]c2cccc(O)c12` the “RLM, %, class symbol (metabolized or not)” value [1] was “R”.

In the case of `[2H]C([2H])(c1c[nH]c2cccc(O)c12)C([2H])([2H])N(C(C)C)C(C)C`, the “RLM, % (half-life as % vs. the related nondeuterated compound)” value [1] is reported as “[97] %”.

With `CC(C)N(CCc1c[nH]c2cccc(O)c12)C(C)C` the “RLM, %, class symbol (metabolized or not)” value [1] was “R”.

For `COc1ccc2[nH]cc(CCN(C)C)c2c1` [5-MeO-DMT, reference compound], the “MAO, %, class symbol (metabolized or not)” value (hrMAO-A) was “R” and the “RLM, %, class symbol (metabolized or not)” value [1] was “R”.

For `[2H]C([2H])(Cc1c[nH]c2ccc(OC)cc12)N(C)C` [5-MeO-DMT-α,α-d2], the “Deuterium Kinetic Isotope Effect (% change) AUC” value [2] was 60 % change, the “Deuterium Kinetic Isotope Effect (% change) T1/2” value [2] was 30 % change and the “Deuterium Kinetic Isotope Effect (% change) BPR, 15 min” value [2] was 120 % change. For the same molecule, the “Deuterium Kinetic Isotope Effect (% change) BPR, 30 min” value [2] was 180 % change.

For `[2H]C([2H])(Cc1c[nH]c2ccccc12)N(C)C` [DMT-d2], the Half-life (hrMAO-A; Table 3, hrMAO-A) was greater than 2 h, the “% Remaining of Initial 0 min” value (hrMAO-A; Table 3, hrMAO-A) was 100% and the “% Remaining of Initial 60 min” value (hrMAO-A; Table 3, hrMAO-A, 60 min) was 76.0%. The “% Remaining of Initial 0 min” value ([1]; Table 2, RLM) was 100% and the “% Remaining of Initial 60 min” value ([1]; Table 2, RLM, 60 min) was 32.0%.

For `[2H]C([2H])(c1c[nH]c2ccccc12)C([2H])([2H])N(C)C` [DMT-d4], the Half-life (hrMAO-A; Table 3, hrMAO-A) was greater than 2 h, the “% Remaining of Initial 0 min” value (hrMAO-A; Table 3, hrMAO-A) was 100% and the “% Remaining of Initial 0 min” value ([1]; Table 2, RLM) was 100%.

With `[2H]C([2H])([2H])N(C([2H])([2H])[2H])C([2H])([2H])C([2H])([2H])c1c[nH]c2ccccc12` [DMT-d10] the “metabolic stability in the MAO-A enzymatic assay, in words” value (hrMAO-A; MAO-A enzymatic assay) was “superiority”, the Half-life (hrMAO-A; Table 3, hrMAO-A) was greater than 2 h and the “% Remaining of Initial 0 min” value (hrMAO-A; Table 3, hrMAO-A) was 100%. The Half-life (hrMAO-A; [3]) was greater than 2 h, the “% Remaining of Initial 0 min” value (hrMAO-A; [3]) was 100.0% and the “% Remaining of Initial 5 min” value (hrMAO-A; Table 5, d8 and d10 analogs, hrMAO-A, 5 min) was 99.0%. For the same molecule, the “% Remaining of Initial 0 min” value ([1]; Table 2, RLM) was 100%, the “% Remaining of Initial 0 min” value ([1]; Table 4, d8 and d10 analogs, RLM) was 100% and the “% Remaining of Initial 10 min” value ([1]; Table 4, d8 and d10 analogs, RLM, 10 min) was 56.0%. The “kinetic deuterium isotope effect / metabolic stability, in words” value ([1]; rat liver microsomes, vs. DMT) was “Further enhancement of metabolic stability”.

In the case of `CN(C)CCc1c[nH]c2ccccc12` [DMT], the “% Remaining of Initial 0 min” value (hrMAO-A; Table 3, hrMAO-A) is reported as 100%, the “% Remaining of Initial 0 min” value ([1]; Table 2, RLM) is reported as 100% and the “% Remaining of Initial 20 min” value ([1]; Table 2, RLM, 20 min) is reported as 41.0%.

For `[2H]C([2H])(Cc1c[nH]c2cccc(O)c12)N(C)C` [PI-α,α-d2], the “Deuterium Kinetic Isotope Effect (% change) AUC” value [2] was 75 % change, the “Deuterium Kinetic Isotope Effect (% change) T1/2” value [2] was 50 % change and the “Deuterium Kinetic Isotope Effect (% change) BPR, 15 min” value [2] was 100 % change. For the same molecule, the “Deuterium Kinetic Isotope Effect (% change) BPR, 30 min” value [2] was 150 % change.

For `CCNCCc1c[nH]c2ccccc12` [reference compound], the “MAO, %, class symbol (metabolized or not)” value (hrMAO-A) was “R” and the “RLM, %, class symbol (metabolized or not)” value [1] was “R”.

In the case of `CCN(C)CCc1c[nH]c2ccccc12` [reference compound], the “MAO, %, class symbol (metabolized or not)” value (hrMAO-A) is reported as “R” and the “RLM, %, class symbol (metabolized or not)” value [1] is reported as “R”.

In the case of `CCN(C)CCc1c[nH]c2ccc(OC)cc12` [reference compound], the “MAO, %, class symbol (metabolized or not)” value (hrMAO-A) is reported as “R” and the “RLM, %, class symbol (metabolized or not)” value [1] is reported as “R”.

In the case of `CCN(C)CCc1c[nH]c2ccc(O)cc12` [reference compound], the “MAO, %, class symbol (metabolized or not)” value (hrMAO-A) is reported as “R” and the “RLM, %, class symbol (metabolized or not)” value [1] is reported as “R”.

In the case of `CCN(C)CCc1c[nH]c2cccc(OC)c12` [reference compound], the “MAO, %, class symbol (metabolized or not)” value (hrMAO-A) is reported as “R” and the “RLM, %, class symbol (metabolized or not)” value [1] is reported as “R”.

With `CN(C)CCc1c[nH]c2ccc(O)cc12` [reference compound] the “MAO, %, class symbol (metabolized or not)” value (hrMAO-A) was “R” and the “RLM, %, class symbol (metabolized or not)” value [1] was “R”.

With `COc1cccc2[nH]cc(CCN(C)C)c12` [reference compound] the “MAO, %, class symbol (metabolized or not)” value (hrMAO-A) was “R” and the “RLM, %, class symbol (metabolized or not)” value [1] was “R”.

For `CNCCc1c[nH]c2ccccc12` [reference compound], the “MAO, %, class symbol (metabolized or not)” value (hrMAO-A) was “R” and the “RLM, %, class symbol (metabolized or not)” value [1] was “R”.

In the case of `CNCCc1c[nH]c2cccc(O)c12` [reference compound], the “MAO, %, class symbol (metabolized or not)” value (hrMAO-A) is reported as “R” and the “RLM, %, class symbol (metabolized or not)” value [1] is reported as “R”.

From patent US12291499B2, “Deuterated tryptamine derivatives and methods of use” (priority 2020, dated 2025)
